Assay results taken from article PMC9048505 (RSC Advances, 2020).

What was measured:
HepG-2 cells [1] = test: Cell cycle analysis (PI staining, flow cytometry); assay type: cell-based, human
Procedure: To gain a better insight into the impact of compound 5a on cancer cell growth inhibition, its impact on cell cycle distribution and apoptosis induction was assessed using HepG-2 cells according to the method outlined by Wang et al.[53] In fact, anticancer agents hinder cancer cell growth and multiplication by arresting cell division at distinct checkpoints, and that cells resist apoptosis are highly resistant to cancer treatment.[54]
HepG-2 cells were seeded at density of 2 × 10^5 cells per well and incubated for 24 h in six-well plates. Fetal bovine serum (FBS, 10%) was added, after that cells were incubated at 37 °C and 5% CO2. The medium was replaced with (DMSO 1% v/v) containing the 2.5 μM of compound 5a, then incubated for 48 h, washed with cold phosphate buffered saline (PBS), fixed with 70% ethanol, rinsed with PBS then stained with the DNA fluorochrome PI, kept for 15 min at 37 °C. Then samples were analyzed with a FACS Caliber flow cytometer.[53]

HCT-116 = test: In vitro anti-proliferative activity, MTT assay, HCT-116; assay type: cell-based, human; settings: for IC50: Homo sapiens, HCT-116, MTT, 24 h treatment, mean ± S.D. of three separate experiments
Procedure: (§1) The cells were obtained from ATCC (American Type Culture Collection) via the Holding company for biological products and vaccines (VACSERA) (Cairo, Egypt). […] After incubation period, the cell lines were treated with different concentration of the synthesized compounds and incubated for 24 h. After treatment by 24 h, 20 μL of MTT solution (5 mg mL^−1) was added and incubated for 4 h. Dimethyl sulfoxide (100 μL) was added into each well to dissolve the formed purple formazan. […] The relative cell viability in percentage was calculated as (A570 of treated samples/A570 of untreated sample) X 100.

HepG-2 = test: In vitro anti-proliferative activity, MTT assay, HepG-2; assay type: cell-based, human; settings: for IC50: Homo sapiens, HepG2, MTT, 24 h treatment, mean ± S.D. of three separate experiments
Procedure: as §1

MCF-7 = test: In vitro anti-proliferative activity, MTT assay, MCF-7; assay type: cell-based, human; settings: for IC50: Homo sapiens, MCF7, MTT, 24 h treatment, mean ± S.D. of three separate experiments
Procedure: as §1

purified bovine tubulin = target: T1, purified bovine tubulin (Bos taurus, UniProt P81947+Q6B856); test: In vitro tubulin polymerization assay; assay type: biochemical; settings: purified bovine tubulin 10 μM, 37 °C; read-out: IC50 Tubulin polymerization inhibition
T1 construct: purified bovine tubulin (10 μM); from tissue; host or cells: bovine
Procedure: The inhibition assay on microtubule polymerization was evaluated turbidimetrically using a fluorescent plate reader.[52]

HepG-2 cells [2] = test: Annexin V-FITC apoptosis assay; assay type: cell-based, human; settings: HepG-2, 5a at 2.5 μM for 24 h
Procedure: To further confirm Apoptotic effect of compound 5a in HepG-2 cells, Annexin V and PI double staining assay was performed.[55] In this test, HepG-2 cells were incubated with compound 5a at concentration of 2.5 μM for 24 h.
The effect of the most cytotoxic compound 5a on apoptosis induction was analyzed using Annexin V-FITC/PI apoptosis detection kit. In this test, HepG-2 cells were stained with Annexin V fluorescein isothiocyanate (FITC) and counterstained with propidium iodide (PI). Then, HepG-2 cells in a density of 2 × 10^5 per well were incubated with compound 5a for […]. Next, the cells were trypsinized, washed with phosphate-buffered saline (PBS), and stained for 15 min at 37 °C in the dark. Finally, FACS Caliber flow cytometer was used in analysis process.[55]

T1 sequence (Q6B856 whole entry): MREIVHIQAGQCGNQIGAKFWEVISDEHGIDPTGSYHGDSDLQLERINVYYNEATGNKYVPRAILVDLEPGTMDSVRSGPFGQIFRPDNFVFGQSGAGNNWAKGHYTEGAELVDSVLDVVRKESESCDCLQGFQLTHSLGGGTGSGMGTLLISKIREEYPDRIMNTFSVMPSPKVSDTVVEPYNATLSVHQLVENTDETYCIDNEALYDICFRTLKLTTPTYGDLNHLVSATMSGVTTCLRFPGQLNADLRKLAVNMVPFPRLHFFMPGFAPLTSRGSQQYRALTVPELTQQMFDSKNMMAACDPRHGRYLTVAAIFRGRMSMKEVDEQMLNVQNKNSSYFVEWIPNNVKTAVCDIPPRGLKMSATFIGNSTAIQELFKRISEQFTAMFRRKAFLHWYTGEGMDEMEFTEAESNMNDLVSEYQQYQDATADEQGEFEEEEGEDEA
T1 sequence (P81947 whole entry): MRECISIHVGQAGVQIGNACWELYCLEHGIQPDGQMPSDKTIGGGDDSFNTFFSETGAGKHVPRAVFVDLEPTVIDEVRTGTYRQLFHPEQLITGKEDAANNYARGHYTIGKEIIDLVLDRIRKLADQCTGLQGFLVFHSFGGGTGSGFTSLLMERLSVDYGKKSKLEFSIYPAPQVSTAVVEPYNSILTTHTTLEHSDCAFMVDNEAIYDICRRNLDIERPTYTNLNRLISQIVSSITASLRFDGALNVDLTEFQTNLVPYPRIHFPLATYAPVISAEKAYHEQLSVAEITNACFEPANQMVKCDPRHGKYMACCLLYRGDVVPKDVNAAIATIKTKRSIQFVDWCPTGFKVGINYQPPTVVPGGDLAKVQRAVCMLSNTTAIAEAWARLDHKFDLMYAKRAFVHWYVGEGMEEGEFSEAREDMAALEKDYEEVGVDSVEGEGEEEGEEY

| SMILES | Cell cycle distribution % Pre-G1 (HepG-2 cells [1]; HepG-2, 5a at 2.5 μM for 48 h, control 2.14) | Cell cycle distribution % G2-M (HepG-2 cells [1]; HepG-2, 5a at 2.5 μM for 48 h, control 5.09) | Cell cycle distribution % S (HepG-2 cells [1]; HepG-2, 5a at 2.5 μM for 48 h, control 38.15) | Cell cycle distribution % G0-G1 (HepG-2 cells [1]; HepG-2, 5a at 2.5 μM for 48 h, control 56.76) | effect on cell cycle (HepG-2 cells [1]; HepG-2 cells) | IC50 (HCT-116) | times as active as colchicine against HCT-116 (HCT-116; ratio of IC50 values) | IC50 (HepG-2) | times as active as colchicine against HepG-2 (HepG-2; ratio of IC50 values) | IC50 (MCF-7) | times as active as colchicine against MCF-7 (MCF-7; ratio of IC50 values) | melting point | IC50 (purified bovine tubulin) | Necrosis (HepG-2 cells [2]; control 0.48) | Apoptosis Late (HepG-2 cells [2]; control 0.64) | Apoptosis Early (HepG-2 cells [2]; control 1.02) | Apoptosis Total (HepG-2 cells [2]; control 2.14) |
| --- | --- | --- | --- | --- | --- | --- | --- | --- | --- | --- | --- | --- | --- | --- | --- | --- | --- |
| C/C(=N\NC1=N/C(=C/c2cccs2)C(=O)S1)c1ccc(C)cc1 [Compound 5a, (E)-4-(Thiophen-2-ylmethylene)-2-(2-((E)-1-(p-tolyl)ethylidene)hydrazinyl) thiazol-5(4H)-one] | 15.33% | 20.55% | 39.28% | 40.17% | cell arrest at G2/M phase | 6.41 ± 0.1 µM | 1.45 times | 3.34 ± 0.1 µM | 2.23 times | 4.51 ± 0.6 µM | 2.32 times | 202 to 204 °C | 0.00952 ± 0.0003 µM | 1.54% | 5.54% | 8.25% | 15.33% |
| C/C(=N\NC1=N/C(=C/c2ccc(O)cc2)C(=O)S1)c1ccco1 [Compound 8i, 2-(2-((E)-1-(Furan-2-yl)ethylidene)hydrazinyl)-4-((E)-4-hydroxybenzylid-ene)thiazol-5(4H)-one] |  |  |  |  |  | 15.6 ± 0.4 µM |  | 12.5 ± 0.2 µM |  | 22.7 ± 0.7 µM |  | 293 to 295 °C | 0.0478 ± 0.0021 µM |  |  |  |  |
| COc1ccc(/C=C2/N=C(N/N=C(\C)c3ccco3)SC2=O)cc1OC [Compound 8k, 4-((E)-3,4-Dimethoxybenzylidene)-2-(2-((E)-1-(furan-2-yl)ethylidene)hydra-zinyl)thiazol-5(4H)-one] |  |  |  |  |  | 5.55 ± 0.1 µM |  | 4.58 ± 0.1 µM |  | 9.15 ± 0.2 µM |  | 240 to 242 °C | 0.0135 ± 0.0008 µM |  |  |  |  |
| C/C(=N\NC1=N/C(=C/c2ccc(O)cc2O)C(=O)S1)c1ccco1 [Compound 8l, 4-((E)-2,4-Dihydroxybenzylidene)-2-(2-((E)-1-(furan-2-yl)ethylidene) hydrazinyl) thiazol-5(4H)-one] |  |  |  |  |  | 10.28 ± 0.1 µM |  | 3.73 ± 0.1 µM |  | 7.89 ± 0.5 µM |  | 282 to 284 °C | 0.0132 ± 0.0009 µM |  |  |  |  |
| C/C(=N\NC1=N/C(=C/c2cccs2)C(=O)S1)c1cccs1 [Compound 9a, (E)-2-(2-((E)-1-(Thiophen-2-yl)ethylidene)hydrazinyl)-4-(thiophen-2-ylmethylene)thiazol-5(4H)-one] |  |  |  |  |  | 24.2 ± 0.7 µM |  | 21.9 ± 0.9 µM |  | 33.6 ± 0.9 µM |  | 214 to 216 °C | 0.0391 ± 0.001 µM |  |  |  |  |
